Data: patent US8148577B2, “Polyamines useful as anti-parasitic and anti-cancer therapeutics and as lysine-specific demethylase inhibitors” (The Johns Hopkins University, priority 2005, dated 2012)

What was measured:
[1] = test system: H157 (non-small cell lung carcinoma) cells; assay: 96 hr MTS dose response experiment in H157 cells; format: cell-based, human; details: a range means IC50 lies between the two tested concentrations
Procedure: (§1) MTS dose response experiments in H157, H82, and A549 cells following a 96 hr exposure with select compounds were performed. MTS is a standard colorimetric assay used for measuring metabolic activity in cells. MTS experiments were performed by CellTiter 96® AQueuos One Solution Cell Proliferation Assay from Promega Corporation. Briefly, the cells were seeded at 3000 cells/well on a 96 well tissue culture plate containing 100 ul of medium/well and allowed to attach overnight. The medium was then aspirated and replaced with 100 ul of fresh medium containing the appropriate concentration of the compound being tested and incubated for 96 hrs at 37° C. and 5% CO2. Compounds are routinely tested at concentrations ranging from 0.1 micromolar to 50 micromolar. Wells not containing the test compound were present and used as a control. Following treatment, 20 ul of MTS reagent was added to each well and incubated at 37° C. for 1.5 hrs. The absorbance of each well was then measured at 490 nm and used to determine the metabolic activity of the cells in the presence of the test compound, relative to the control. IC50 values for the test compounds were extracted based on the results.
(§2) Note that the results for a 72 hr exposure in addition to the 96 hr exposure are shown for compound 49-TDW-29C in the H157 cells. […] FIG. 1 depicts the results of a 96 hr MTS dose response experiments for compound 46-TDW-23c in H157, A549, H82 and Beas2B cells. FIG. 2 depicts the results of a 96 hr MTS dose response experiments for compound 49-TDW-9 in H157, A549, H82 and Beas2B cells. FIG. 3 depicts the results of a 96 hr MTS dose response experiments for compound 42-TDW-21c in H157, A549, H82 and Beas2B cells. FIG. 4 depicts the results of a 96 hr MTS dose response experiments for compound 46-TDW-19c in H157, A549, H82 and Beas2B cells. FIG. 5 depicts the results of a 96 hr MTS dose response experiments for compound 49-TDW-17c in H157, A549, H82 and Beas2B cells. FIG. 6 depicts the results of a 96 hr MTS dose response experiments for compound 40-TDW-37 in H157, A549, H82 and Beas2B cells. FIG. 7 depicts the results of a 96 hr MTS dose response experiments for compound 42-TDW-4 in H157, A549, H82 and Beas2B cells. FIG. 8 depicts the results of a 96 hr MTS dose response experiments for compound 49-TDW-29c in H157, A549, H82 and Beas2B cells. FIG. 9 depicts the results of a 96 hr MTS dose response experiments for compound 49-TDW-32c in H157, A549, H82 and Beas2B cells. FIG. 10 depicts the results of a 96 hr MTS dose response experiments for compound 46-TDW-35c in H157, A549, H82 and Beas2B cells. FIG. 11 depicts the results of a 96 hr MTS dose response experiments for compound 39-TDW-3 in H157, A549, and H82 cells. FIG. 12 depicts the results of a 96 hr MTS dose response experiments for compound 39-TDW-12c in […], and A549 cells. FIG. 13 depicts the results of a 96 hr MTS dose response experiments for compound 39-TDW-20c in H157, and H82 cells. FIG. 14 depicts the results of a 96 hr MTS dose response experiments for compounds 39-TDw-47c and 39-TDW-43 in H157 cells. FIG. 15 depicts the results of a 96 hr MTS dose response experiments for compounds 42-TDW-9, 42-TDW-4c/6, 40-TDW-35, 42-TDW-38 and BENSpm in H157 cells. FIG. 16 depicts the results of a 96 hr MTS dose response experiments for compounds 46-TDW-34c, 42-TDW-12, 40-TDW-48, 46-TDW-44c and BENSpm in H157 cells. FIG. 17 depicts the results of a 96 hr MTS dose response experiments for compounds 42-TDW-20c, 46-TDW-22, 46-TDW-39, 49-TDW-29c and BENSpm in H157 cells. FIG. 18 depicts the results of a 96 hr MTS dose response experiments for compounds 39-TDW-43, 42-TDW-48c, 46-TDW-9, 46-TDW-23c and BENSpm in H157 cells. FIG. 19 depicts the results of a 96 hr MTS dose response experiments for compounds 42-TDW-35c, 46-TDW-44 and BENSpm in H157 cells.

[2] = test system: H82 (small lung cell carcinoma) cells; assay: 96 hr MTS dose response experiments in H82 cells; format: cell-based, human
Procedure: as §1, §2

[3] = test system: A549 cells; assay: 96 hr MTS dose response experiments in A549 cells; format: cell-based; details: Homo sapiens, 96 hr exposure
Procedure: as §1
Note that the results for a 72 hr exposure in addition to the 96 hr exposure are shown for compound 49-TDW-29C in the H157 cells. […]

[4] = test system: H157 (non-small cell lung carcinoma) cells; assay: Polyamine levels in H157 cells following treatment; format: cell-based, human; details: 24 hr
Procedure: (§3) Putrescine, spermidine, and spermine polyamine levels in H157 and H82 cells following exposure to select compounds were performed. Polyamine levels were determined using the precolumn dansylation labeling, reverse-phase high-pressure liquid chromatography method as described by Kabra et al., J. Chromotography, 380:19 (1986). The results are show in Tables 6 and 11 for H157 and H82 cells respectively. The compound identifier, treatment concentration, observed polyamine level, and exposure time are listed in columns 1, 2, 3, and 4 respectively. Polyamine levels are reported as increased (inc), decrease (dec), or no change (N/C). In some case the specific levels of putrescine, spermidine, and/or spermine are listed.

[5] = test system: H82 cells; assay: Polyamine levels in H82 cells following treatment; format: cell-based, human; details: 24 hr
Procedure: as §3

[6] = test system: P19 embryonal carcinoma cells; details: P19 embryonal carcinoma cells treated; cited from earlier work
[7] = Homo sapiens, NCI-H157, 96 hr exposure
[8] = Homo sapiens, NCI-H82, 96 hr exposure
[9] = 10 uM, inc = increased, dec = decrease, N/C = no change

IC50 [1, 7] [µM]	IC50 [2, 8] [µM]	Structure (SMILES)	Polyamine Level [4, 9]	other results
0.53 to 2.7	0.53 to 2.7	c1ccc(-c2ccccc2CNCCCNCCCNCCCNCc2ccccc2-c2ccccc2)cc1 [39-TDW-3]		IC50 [3]: 1 to 10 µM
> 10		C=C(C)NCCCNCCCNCCCN [ZQW-35-7c]	dec	Polyamine Level ([4]; 5 uM): slight dec; Polyamine Level ([5]; 10 uM): N/C
> 10		C=C(C)NCCCNCCCNCCCNC(=C)C [ZQW-35-8]	N/C	Polyamine Level ([5]; 10 uM): N/C, slight
> 13		C=C(CNCCCNCC)CNCCCNCC [ZQW-44]	N/C	Polyamine Level ([5]; 50 uM): inc
		CCSCCNCCCNCCCNCCCNCCSCC [49-TDW-15]		IC50 ([1]; 96 hr exposure): 0.5 to 1 µM; IC50 ([2]; 96 hr exposure): 10 to 50 µM
1 to 10	1 to 10	CC1(C)C2CCC(CNCCCNCCCNCCCN)C1C2 (stereo not drawn) [ZQW-35c]		
13		C=C(CNCC)CNCCCNCCCNCC [ZQW-46]	N/C	Polyamine Level ([5]; 5-uM): dec
5.3 to 26.5	5 to 10	CC(C)(C)CCNCCCNCCCNCCCNCC(F)(F)F [40-TDW-19]		
1 to 10		C=C(C)NCCCNCCCNCCCNCC [ZQW-35-8c]	dec	Polyamine Level, spd, spm ([4]; spermidine and spermine, 10 uM): 1 g dec; Polyamine Level ([5]; 10 uM): N/C, slight
		N[C@@H]1C[C@H]1c1ccccc1 [tranylcypromine, (1R,2S)-2-phenylcyclopropan-1-amine]		effect on transcription of Egr1 and Oct4 genes [6]: transcriptional de-repression of the Egr1 and Oct4 genes
1 to 10	1 to 10	CCNCCCNCCCNCCCNCC1CCC2CC1C2(C)C (stereo not drawn) [ZQW-36]	slight dec	Polyamine Level, Spm ([4]; spermine (Spm), 10 uM): inc
1 to 10	< 1	CC1(C)C2CCC(CNCCCNCCCNCCCNCC3CCC4CC3C4(C)C)C1C2 (stereo not drawn) [ZQW-35]		Polyamine Level ([4]; 4 uM): N/C
		CCNCCCNCCCNCCCNCCCCc1cc2cccc3ccc4cccc1c4c32 [40-TDW-23]		IC50 ([1]; 96 hr exposure): 10 to 50 µM; IC50 ([2]; 96 hr exposure): 10 to 50 µM
2.76 to 5.52	2.76 to 5.52	CCNCCCNCCCNCCCNCc1ccccc1-c1ccccc1 [39-TDW-20c]		IC50 [3]: > 10 µM
